In PMC10258794, “To Fold or Not to Fold: Diastereomeric Optimization of an α-Helical Antimicrobial Peptide” (Journal of Medicinal Chemistry, 2023):
In brackets after ≈: the same amount, converted by molar mass. Like-named read-outs stand apart in the source and are kept apart here.

How the values were obtained:
Burkolderia cenocepacia = assay: microbe, parasite or virus in culture
Enterobacter cloacae = assay: microbe, parasite or virus in culture; settings: pH 7.4
Outline: (§1)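 Growth inhibition is judged by eye after MTT addition, the MIC being the lowest compound concentration whose well stays yellow. Bacteria from overnight LB cultures are diluted in MH medium at pH 7.4 to roughly 5 × 10^5 CFU and incubated with doubling dilutions at 37 °C, unshaken, 16–20 h.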

P. aeruginosa PA14 = assay: microbe, parasite or virus in culture
Outline: as §1

P. aeruginosa ZEM-1A = assay: microbe, parasite or virus in culture; settings: pH 7.4
Outline: as §1

PA14 2P4 (pmrB) = assay: microbe, parasite or virus in culture; settings: supplementary CSV
Outline: as §1

PA14 4.13 (phoQ) = assay: microbe, parasite or virus in culture; settings: supplementary CSV
Outline: as §1

PA14 4.18 (pmrB) = assay: microbe, parasite or virus in culture; settings: supplementary CSV
Outline: as §1

P. aeruginosa ZEM9A = assay: microbe, parasite or virus in culture; format: cell-based, Pseudomonas aeruginosa; settings: pH 7.4
Outline: as §1

K. pneumoniae Oxa-48 = assay: MIC broth microdilution, K. pneumoniae Oxa-48; format: cell-based, Klebsiella pneumoniae; settings: MDR strain; MH broth pH 7.4, 16–20 h, 37 °C
Outline: as §1

[1] = tested on: Stenotrophomonas maltophilia; assay: microbe, parasite or virus in culture; format: cell-based; settings: pH 7.4
Outline: as §1

Staphylococcus epidermis = assay: MIC broth microdilution, Staphylococcus epidermis; format: cell-based
Outline: as §1

HEK293 cells = assay: Alamar blue cytotoxicity, HEK293; format: cell-based, human; settings: 24 h, mean ± SD, n = 3, read-out: Toxicity on HEK293 cells
Outline: (§2)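 Viability read by AlamarBlue fluorescence (560/590 nm) after 3–5 h with 10% reagent, relative to untreated controls. Beforehand, cells got rising compound doses for 24 h at 37 °C; seeding was 8000/well for A549 in RPMI-1640 and 4000/well for HEK293 in DMEM.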

A549 cells = assay: Alamar blue cytotoxicity, A549; format: cell-based, human; settings: 24 h, mean ± SD, n = 3, read-out: Toxicity on A549 lung cancern cells
Outline: as §2

[2] = 24 h, […] human serum in TRIS buffer pH 7.4, 37 °C
Method: Human serum was diluted in 0.1 M filtered TRIS buffer (pH 7.4) (25%, 1:3, v/v). Selected peptides were diluted in 0.1 M filtered TRIS buffer (pH 7.4) to a concentration of 400 μM, and 0.1 mg/mL 4- hydroxybenzoic acid was added as an internal standard. Aliquots of peptide solution (50 μL) were added to aliquots of serum (50 μL) in sterile Eppendorf tubes, to reach a peptide concentration of 200 μM during the assay. Samples were incubated at 37 °C under gentle stirring (350 rpm). Different samples (triplicates) were quenched at different time points (0/1/6/12/24 h) by precipitating serum proteins through the addition of ZnSO4·7 H2O/ACN (1:1) (0.1 M, 100 μL) and cooling in ice bath for 10 min. Protein precipitates were pelleted under centrifugation, and supernatants were then sampled and analyzed by LC–MS. Experiment controls included two references, one known to be degraded and one known to be undegraded. Peaks corresponding to the internal standard and the undegraded peptides were integrated, with the ratio peptide/standard at t = 0 h as 100%.

P. aeruginosa PAO1 [3] = assay: Time-killing kinetic assay; format: cell-based, Pseudomonas aeruginosa; settings: P. aeruginosa PAO1, 4 × MIC, pH 7.4
Method: A single colony of P. aeruginosa PAO1 was picked and grown overnight with shaking (180 rpm) in LB (Sigma-Aldrich, Buchs, Switzerland) medium 5 mL overnight at 37 °C. The overnight bacterial culture was diluted to OD600 0.002 (2 × 10^6 CFU/mL) in fresh MH medium. Stock solutions of AMPs in sterilized milliQ water were prepared in 1 mg/mL and were diluted to two times more than required concentration in fresh MH (Sigma-Aldrich, Buchs, Switzerland) medium at pH 7.4. 100 μL of prepared bacteria solution in MH and 100 μL of samples in MH were mixed in a 96-well microtiter plate (TPP, untreated, Corning Incorporated, Kennebunk, USA). Untreated bacteria at 1 × 10^6 CFU/mL were used as a growth control. 96-well microtiter plates were incubated in 37 °C with shaking (180 rpm). Surviving bacteria were quantified at 0, 0.5, 1, 2, 3, 4, 5, and 6 h by plating 10-fold dilutions of the sample in sterilized normal saline on LB agar plates. LB agar plates were incubated at 37 °C for 10 h, and the number of individual colonies was counted at each timepoint. The assay was performed in triplicate in the biosafety level 2 lab.

A. baumannii ATCC19606 = settings: MH broth pH 7.4, 16–20 h, 37 °C
Outline: as §1

E. coli W3110 = settings: MH broth pH 7.4, 16–20 h, 37 °C
Outline: as §1

K. pneumoniae NCTC418 = tested on: K. pneumoniae NCTC418
Outline: as §1

P. aeruginosa PAO1 [4] = tested on: P. aeruginosa PAO1
Outline: as §1

[5] = tested on: Pseudomonas aeruginosa, Klebsiella pneumoniae, Acinetobacter baumannii, Escherichia coli, and methicillin-resistant Staphylococcus aureus; settings: summary of Table 1
Outline: as §1

S. aureus COL MRSA = tested on: S. aureus COL MRSA
Outline: as §1

S. aureus Newman [6] = tested on: S. aureus Newman
S. aureus Newman [7] = assay: microbe, parasite or virus in culture; settings: Staphylococcus aureus, pH 7.4, read-out: MIC S. aureus Newman
[8] = MH broth pH 7.4, 16–20 h, 37 °C
[9] = supplementary CSV, ranges of Table 1 given as one number

SMILES: CC(C)C[C@H](NC(=O)[C@H](CCCCN)NC(=O)[C@H](N)CCCCN)C(=O)N[C@@H](CC(C)C)C(=O)N[C@@H](CCCCN)C(=O)N[C@@H](CC(C)C)C(=O)N[C@@H](CC(C)C)C(=O)N[C@@H](CCCCN)C(=O)N[C@@H](CC(C)C)C(=O)N[C@@H](CC(C)C)C(=O)N[C@H](CC(C)C)C(N)=O [HP5]
- MIC Burkolderia cenocepacia (Burkolderia cenocepacia; MDR strain, MH broth pH 7.4, 16–20 h, 37 °C): >64 µg/mL
- MIC B. cenocepacia (Burkolderia cenocepacia; supplementary CSV): > 64 µg/mL
- MIC Enterobacter cloacae (Enterobacter cloacae): 2 µg/mL (≈ 1.51 µM)
- MIC PA14 (P. aeruginosa PA14; [8]): 2 µg/mL (≈ 1.51 µM)
- MIC P. aeruginosa PA14 (P. aeruginosa PA14; supplementary CSV): 2 µg/mL (≈ 1.51 µM)
- MIC ZEM-1A (P. aeruginosa ZEM-1A): 2 µg/mL (≈ 1.51 µM)
- MIC P. aeruginosaPA14 2P4 (PA14 2P4 (pmrB)): 32 µg/mL (≈ 24.2 µM)
- MIC P. aeruginosa PA14 4.13 (PA14 4.13 (phoQ)): 4 µg/mL (≈ 3.03 µM)
- MIC P. aeruginosa PA14 4.18 (PA14 4.18 (pmrB)): 16 µg/mL (≈ 12.1 µM)
- MIC ZEM9A (P. aeruginosa ZEM9A): 4 µg/mL (≈ 3.03 µM)
- MIC K. pneumoniae Oxa-48 (K. pneumoniae Oxa-48): 2 µg/mL (≈ 1.51 µM)
- MIC Stenotrophomonas maltophilia [1]: 2 µg/mL (≈ 1.51 µM)
- MIC Staphylococcus epidermis (Staphylococcus epidermis; pH 7.4): 2 µg/mL (≈ 1.51 µM)
- IC50 (HEK293 cells): 93.2 ± 0.1 µM
- IC50 (A549 cells): 18.9 ± 3.6 µM
- serum stability [2]: entirely stabilize
- time to complete killing of bacteria (P. aeruginosa PAO1 [3]): ≤ 1 h
- MIC A. baumannii ATCC19606 (A. baumannii ATCC19606): 0.5 µg/mL (≈ 0.378 µM)
- MIC E. coli W3110 (E. coli W3110): 0.5 µg/mL (≈ 0.378 µM)
- MIC K. pneumoniae NCTC418 (K. pneumoniae NCTC418; [8]): 2 µg/mL (≈ 1.51 µM)
- MIC K. pneumoniae NCTC418 (K. pneumoniae NCTC418; [9]): 2 µg/mL (≈ 1.51 µM)
- MIC P. aeruginosa PAO1 (P. aeruginosa PAO1 [4]; [8]): 2 µg/mL (≈ 1.51 µM)
- MIC P. aeruginosa PAO1 (P. aeruginosa PAO1 [4]; [9]): 2 µg/mL (≈ 1.51 µM)
- MIC, span over the five bacterial strains [5]: 0.5 to 4 µg/mL
- MIC S. aureus COL MRSA (S. aureus COL MRSA; [8]): 2 µg/mL (≈ 1.51 µM)
- MIC S. aureus COL (S. aureus COL MRSA; [9]): 2 µg/mL (≈ 1.51 µM)
- MIC S. aureus Newman (S. aureus Newman [6]; [8]): 2 µg/mL (≈ 1.51 µM)
- MIC S. aureus Newmann (S. aureus Newman [6]; supplementary CSV): 2 µg/mL (≈ 1.51 µM)

SMILES: CN[C@H](CC(C)C)C(=O)N[C@H]1C(=O)N[C@@H](CC(N)=O)C(=O)N[C@H]2C(=O)N[C@H]3C(=O)N[C@H](C(=O)N[C@H](C(=O)O)c4cc(O)cc(O)c4-c4cc3ccc4O)[C@H](O)c3ccc(c(Cl)c3)Oc3cc2cc(c3O[C@@H]2O[C@H](CO)[C@@H](O)[C@H](O)[C@H]2O[C@H]2C[C@](C)(N)[C@H](O)[C@H](C)O2)Oc2ccc(cc2Cl)[C@H]1O [Vancomycin, vancomycin, reference compound]
- MIC (Staphylococcus epidermis; Staphylococcus, pH 7.4, read-out: MIC Staphylococcus epidermis): 0.5 µg/mL (≈ 0.345 µM)
- MIC (S. aureus Newman [7]): 0.5 µg/mL (≈ 0.345 µM)
